From the supplement of paper PMC10307832

Key:
Test in all cases: relative viability (nuclei count vs DMSO), 5 days (fraction); higher = more cells survive
EPLC-272H = tested on: EPLC-272H
Procedure, shortened: (§1)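 After 5 days of treatment, lung cancer cells in 1536-well plates were fixed and stained in a single step (final 0.05% Triton X-100, 1% formaldehyde, 1 ug/ml Hoechst) and their nuclei counted on 4× images. Treatment had been applied by pin tool the day after seeding as one drug alone or as a fixed anchor-drug dose with five library-drug doses (not always all listed) in √10 steps. Relative viability is the nuclei count of treated wells divided by that of vehicle wells, and values are medians of duplicate plates.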

NCI-H1651 = tested on: NCI-H1651
Procedure, shortened: as §1

NCI-H650 = tested on: NCI-H650
Procedure, shortened: as §1

EMC-BAC-2 = tested on: EMC-BAC-2
Procedure, shortened: as §1

NCI-H2023 = tested on: NCI-H2023
Procedure, shortened: as §1

NCI-H1355 = tested on: NCI-H1355
Procedure, shortened: as §1

UMC-11 = tested on: UMC-11
Procedure, shortened: as §1

HCC-44 = tested on: HCC-44
Procedure, shortened: as §1

SK-MES-1 = tested on: SK-MES-1
Procedure, shortened: as §1

NCI-H2405 = tested on: NCI-H2405
Procedure, shortened: as §1

NCI-H1944 = tested on: NCI-H1944
Procedure, shortened: as §1

NCI-H2085 = tested on: NCI-H2085
Procedure, shortened: as §1

NCI-H1793 = tested on: NCI-H1793
Procedure, shortened: as §1

NCI-H1395 = tested on: NCI-H1395
Procedure, shortened: as §1

LCLC-103H = tested on: LCLC-103H
Procedure, shortened: as §1

NCI-H520 = tested on: NCI-H520
Procedure, shortened: as §1

H3255 = tested on: H3255
Procedure, shortened: as §1

NCI-H322M = tested on: NCI-H322M
Procedure, shortened: as §1

ChaGo-K-1 = tested on: ChaGo-K-1
Procedure, shortened: as §1

NCI-H2087 = tested on: NCI-H2087
Procedure, shortened: as §1

LCLC-97TM1 = tested on: LCLC-97TM1
Procedure, shortened: as §1

HCC-827 = tested on: HCC-827
Procedure, shortened: as §1

Work on `NC(=O)Nc1cc(-c2cccc(F)c2)sc1C(=O)N[C@H]1CCCNC1` [AZD7762] + Nc1ncn([C@H]2C[C@H](O)[C@@H](CO)O2)c(=O)n1 [Decitabine] (partner 2 µM) yielded a relative viability (EPLC-272H; first compound 0.01 µM) of 0.352, a relative viability (EPLC-272H; first compound 0.03162 µM) of 0.445 and a relative viability (EPLC-272H; first compound 0.1 µM) of 0.356. For the same molecule, the relative viability (EPLC-272H; first compound 0.3162 µM) was 0.421, the relative viability (EPLC-272H; first compound 1 µM) was 0.239 and the relative viability (NCI-H1651; first compound 0.01 µM) was 0.612. It also gave a relative viability (NCI-H1651; first compound 0.03162 µM) of 0.887, a relative viability (NCI-H1651; first compound 0.1 µM) of 0.698 and a relative viability (NCI-H1651; first compound 0.3162 µM) of 0.692. It also gave a relative viability (NCI-H1651; first compound 1 µM) of 0.315, a relative viability (NCI-H650; first compound 0.01 µM) of 0.359 and a relative viability (NCI-H650; first compound 0.03162 µM) of 0.404. The relative viability (NCI-H650; first compound 0.1 µM) was 0.437, the relative viability (NCI-H650; first compound 0.3162 µM) was 0.493 and the relative viability (NCI-H650; first compound 1 µM) was 0.493. The relative viability (EMC-BAC-2; first compound 0.01 µM) was 1.03, the relative viability (EMC-BAC-2; first compound 0.03162 µM) was 1.01 and the relative viability (EMC-BAC-2; first compound 0.1 µM) was 1.09. It also gave a relative viability (EMC-BAC-2; first compound 0.3162 µM) of 1.13, a relative viability (EMC-BAC-2; first compound 1 µM) of 0.933 and a relative viability (NCI-H2023; first compound 0.01 µM) of 0.249. It also gave a relative viability (NCI-H2023; first compound 0.03162 µM) of 0.25, a relative viability (NCI-H2023; first compound 0.1 µM) of 0.179 and a relative viability (NCI-H2023; first compound 0.3162 µM) of 0.121. The relative viability (NCI-H2023; first compound 1 µM) was 0.0986, the relative viability (NCI-H1355; first compound 0.01 µM) was 0.352 and the relative viability (NCI-H1355; first compound 0.03162 µM) was 0.385. For the same molecule, the relative viability (NCI-H1355; first compound 0.1 µM) was 0.317, the relative viability (NCI-H1355; first compound 0.3162 µM) was 0.407 and the relative viability (NCI-H1355; first compound 1 µM) was 0.475. For the same molecule, the relative viability (UMC-11; first compound 0.01 µM) was 0.728, the relative viability (UMC-11; first compound 0.03162 µM) was 0.591 and the relative viability (UMC-11; first compound 0.1 µM) was 0.598. It also gave a relative viability (UMC-11; first compound 0.3162 µM) of 0.479, a relative viability (UMC-11; first compound 1 µM) of 0.305 and a relative viability (HCC-44; first compound 0.01 µM) of 0.994. The relative viability (HCC-44; first compound 0.03162 µM) was 0.959, the relative viability (HCC-44; first compound 0.1 µM) was 1.01 and the relative viability (HCC-44; first compound 0.3162 µM) was 0.987. It also gave a relative viability (HCC-44; first compound 1 µM) of 1.08, a relative viability (SK-MES-1; first compound 0.01 µM) of 0.347 and a relative viability (SK-MES-1; first compound 0.03162 µM) of 0.394. The relative viability (SK-MES-1; first compound 0.1 µM) was 0.342, the relative viability (SK-MES-1; first compound 0.3162 µM) was 0.289 and the relative viability (SK-MES-1; first compound 1 µM) was 0.163. For the same molecule, the relative viability (NCI-H2405; first compound 0.01 µM) was 0.806, the relative viability (NCI-H2405; first compound 0.03162 µM) was 0.777 and the relative viability (NCI-H2405; first compound 0.1 µM) was 0.808. It also gave a relative viability (NCI-H2405; first compound 0.3162 µM) of 0.765, a relative viability (NCI-H2405; first compound 1 µM) of 0.487 and a relative viability (NCI-H1944; first compound 0.01 µM) of 0.46. The relative viability (NCI-H1944; first compound 0.03162 µM) was 0.494, the relative viability (NCI-H1944; first compound 0.1 µM) was 0.442 and the relative viability (NCI-H1944; first compound 0.3162 µM) was 0.497. It also gave a relative viability (NCI-H1944; first compound 1 µM) of 0.44, a relative viability (NCI-H2085; first compound 0.01 µM) of 0.602 and a relative viability (NCI-H2085; first compound 0.03162 µM) of 0.693. The relative viability (NCI-H2085; first compound 0.1 µM) was 0.672, the relative viability (NCI-H2085; first compound 0.3162 µM) was 0.743 and the relative viability (NCI-H2085; first compound 1 µM) was 0.702. The relative viability (NCI-H1793; first compound 0.01 µM) was 0.437, the relative viability (NCI-H1793; first compound 0.03162 µM) was 0.551 and the relative viability (NCI-H1793; first compound 0.1 µM) was 0.689. For the same molecule, the relative viability (NCI-H1793; first compound 0.3162 µM) was 1.28, the relative viability (NCI-H1793; first compound 1 µM) was 0.39 and the relative viability (NCI-H1395; first compound 0.01 µM) was 0.866. The relative viability (NCI-H1395; first compound 0.03162 µM) was 0.727, the relative viability (NCI-H1395; first compound 0.1 µM) was 0.65 and the relative viability (NCI-H1395; first compound 0.3162 µM) was 0.476. The relative viability (NCI-H1395; first compound 1 µM) was 0.354, the relative viability (LCLC-103H; first compound 0.01 µM) was 0.766 and the relative viability (LCLC-103H; first compound 0.03162 µM) was 0.824. For the same molecule, the relative viability (LCLC-103H; first compound 0.1 µM) was 0.764, the relative viability (LCLC-103H; first compound 0.3162 µM) was 0.725 and the relative viability (LCLC-103H; first compound 1 µM) was 0.829. It also gave a relative viability (NCI-H520; first compound 0.01 µM) of 0.521, a relative viability (NCI-H520; first compound 0.03162 µM) of 0.522 and a relative viability (NCI-H520; first compound 0.1 µM) of 0.52. It also gave a relative viability (NCI-H520; first compound 0.3162 µM) of 0.475, a relative viability (NCI-H520; first compound 1 µM) of 0.246 and a relative viability (H3255; first compound 0.01 µM) of 0.528. It also gave a relative viability (H3255; first compound 0.03162 µM) of 0.708, a relative viability (H3255; first compound 0.1 µM) of 0.683 and a relative viability (H3255; first compound 0.3162 µM) of 0.599. The relative viability (H3255; first compound 1 µM) was 0.625, the relative viability (NCI-H322M; first compound 0.01 µM) was 0.813 and the relative viability (NCI-H322M; first compound 0.03162 µM) was 0.789. For the same molecule, the relative viability (NCI-H322M; first compound 0.1 µM) was 0.801, the relative viability (NCI-H322M; first compound 0.3162 µM) was 0.783 and the relative viability (NCI-H322M; first compound 1 µM) was 0.457. For the same molecule, the relative viability (ChaGo-K-1; first compound 0.01 µM) was 0.52, the relative viability (ChaGo-K-1; first compound 0.03162 µM) was 0.553 and the relative viability (ChaGo-K-1; first compound 0.1 µM) was 0.565. For the same molecule, the relative viability (ChaGo-K-1; first compound 0.3162 µM) was 0.555, the relative viability (ChaGo-K-1; first compound 1 µM) was 0.597 and the relative viability (NCI-H2087; first compound 0.01 µM) was 0.313. It also gave a relative viability (NCI-H2087; first compound 0.03162 µM) of 0.378, a relative viability (NCI-H2087; first compound 0.1 µM) of 0.411 and a relative viability (NCI-H2087; first compound 0.3162 µM) of 0.475. It also gave a relative viability (NCI-H2087; first compound 1 µM) of 0.332, a relative viability (LCLC-97TM1; first compound 0.01 µM) of 0.259 and a relative viability (LCLC-97TM1; first compound 0.03162 µM) of 0.265. For the same molecule, the relative viability (LCLC-97TM1; first compound 0.1 µM) was 0.273, the relative viability (LCLC-97TM1; first compound 0.3162 µM) was 0.303 and the relative viability (LCLC-97TM1; first compound 1 µM) was 0.346. The relative viability (HCC-827; first compound 0.01 µM) was 0.312, the relative viability (HCC-827; first compound 0.03162 µM) was 0.428 and the relative viability (HCC-827; first compound 0.1 µM) was 0.362. It also gave a relative viability (HCC-827; first compound 0.3162 µM) of 0.338 and a relative viability (HCC-827; first compound 1 µM) of 0.233.
